Target: T1, Rac1 (Homo sapiens, UniProt P63000)
T1 construct: His (N)
Assay: Rac Activation AlphaScreen Assay (Rac1 AS)
Type: biochemical
Settings: Rac1 AS assay, dose leading to 50% disruption of complex; read-out: IC50
Experimental: The IC50 values reported in Tables 1-6 were obtained from the Rae Activation AlphaScreen Assay (Rac1 AS) assay described in subsection 2 under the section entitled “In Vitro Assays”. “†” represents an IC50 of greater than 100 uM; “††” represents an IC50 of greater than 10 uM and less than 50 uM; and “†††” represents an IC50 of less than 10 uM. “POC” means percent of control. […] Lower POC values reflect greater inhibition. “NT” means not tested.
2. Rac Activation AlphaScreen Assay (Rac1 AS)
AlphaScreen® assays were performed in 96-well microplates in a final reaction volume of 60 μL. Recombinant His-Rac1, recombinant GST-PBD (PAK Binding Domain), donor and acceptor beads (PerkinElmer), and inhibitors were incubated in exchange buffer (20 mM Tris pH 7.5, 50 mM NaCl, 1 mM MgCl2, 1 mM EDTA, 500 nM GTPyS (guanosine 5′-[Y-thio]triphosphate)) at 37° C. Readings were performed on a Tecan M1000 pro microplate reader after 1 hour. Data was analyzed using the GraphPad Prism software (GraphPad Software, Inc.), and IC50 (dose leading to 50% disruption of complex) was calculated from the dose-response curves.

| IC50 [µM] | SMILES |
| --- | --- |
| > 100 | O=C(Cc1ccc(Cl)cc1)Nc1ccc(-c2ccc3nnc(-c4ccncc4)n3n2)cc1 [Compound 7] |
| > 100 | O=C(Cc1cccc(F)c1)Nc1ccc(-c2ccc3nnc(-c4ccncc4)n3n2)cc1 [Compound 8] |
| 10 to 50 | Cc1ccc(CC(=O)Nc2ccc(-c3ccc4nnc(-c5ccncc5)n4n3)cc2)cc1C [Compound 9] |
| < 10 | O=C(Cc1cccc(Cl)c1)Nc1ccc(-c2ccc3nnc(-c4ccncc4)n3n2)cc1 [Compound 10] |
| 10 to 50 | Cc1cc(C)cc(CC(=O)Nc2ccc(-c3ccc4nnc(-c5ccncc5)n4n3)cc2)c1 [Compound 11] |
| < 10 | O=C(Cc1ccc(F)cc1)Nc1ccc(-c2ccc3nnc(-c4ccncc4)n3n2)cc1 [Compound 12] |
| 10 to 50 | Cc1ccccc1CC(=O)Nc1ccc(-c2ccc3nnc(-c4ccncc4)n3n2)cc1 [Compound 13] |
| < 10 | O=C(Cc1cccc2ccccc12)Nc1ccc(-c2ccc3nnc(-c4ccncc4)n3n2)cc1 [Compound 15] |
| 10 to 50 | O=C(Cc1ccc2ccccc2c1)Nc1ccc(-c2ccc3nnc(-c4ccncc4)n3n2)cc1 [Compound 16] |
| 10 to 50 | O=C(Cc1cccc([N+](=O)[O-])c1)Nc1ccc(-c2ccc3nnc(-c4ccncc4)n3n2)cc1 [Compound 17] |
| 10 to 50 | O=C(Cc1cccs1)Nc1ccc(-c2ccc3nnc(-c4cccnc4)n3n2)cc1 [Compound 18] |
| < 10 | O=C(Cc1cccc2ccccc12)Nc1ccc(-c2ccc3nnc(-c4ccccn4)n3n2)cc1 [Compound 19] |
| > 100 | O=C(Cc1ccc2ccccc2n1)Nc1ccc(-c2ccc3nnc(-c4ccccn4)n3n2)cc1 [Compound 20] |
| 10 to 50 | O=C(Cc1ccc(Cl)nc1)Nc1ccc(-c2ccc3nnc(-c4ccccn4)n3n2)cc1 [Compound 21] |
| < 10 | O=C(Cc1cccnc1Cl)Nc1ccc(-c2ccc3nnc(-c4ccccn4)n3n2)cc1 [Compound 22] |
| < 10 | O=C(Cc1cccc(F)c1)Nc1ccc(-c2ccc3nnc(-c4cccs4)n3n2)cc1 [Compound 24] |
| 10 to 50 | COc1cccc(CC(=O)Nc2ccc(-c3ccc4nnc(-c5cccs5)n4n3)cc2)c1 [Compound 25] |
| < 10 | O=C(Cc1ccc(F)cc1)Nc1ccc(-c2ccc3nnc(-c4cccs4)n3n2)cc1 [Compound 26] |
| < 10 | O=C(Cc1ccc(F)cc1F)Nc1ccc(-c2ccc3nnc(-c4cccs4)n3n2)cc1 [Compound 27] |
| < 10 | O=C(Cc1ccccc1Cl)Nc1ccc(-c2ccc3nnc(-c4cccs4)n3n2)cc1 [Compound 28] |
| < 10 | O=C(Cc1ccccc1)Nc1ccc(-c2ccc3nnc(-c4ccccn4)n3n2)cc1 [Compound 30] |
| > 100 | Cc1nnc2ccc(-c3ccc(NC(=O)Cc4ccco4)cc3)nn12 [Compound 31] |
| < 10 | O=S(=O)(Cc1ccccc1)Nc1ccc(-c2ccc3nnc(-c4ccccn4)n3n2)cc1 [Compound 33] |
| < 10 | O=C(Cc1ccccc1Cl)Nc1cccc(-c2ccc3nnc(-c4cccnc4)n3n2)c1 [Compound 44] |
| < 10 | O=C(Cc1c[nH]c2ccccc12)Nc1cccc(-c2ccc3nnc(-c4cccnc4)n3n2)c1 [Compound 45] |
| < 10 | COc1cccc(CC(=O)Nc2cccc(-c3ccc4nnc(-c5cccnc5)n4n3)c2)c1 [Compound 46] |

| IC50 [µM] | SMILES |
| --- | --- |
| 10 to 50 | O=C(Nc1cccc(-c2ccc3nnc(-c4cccnc4)n3n2)c1)c1ccc2ccccc2c1 [Compound 49] |
| < 10 | O=C(Cc1cccs1)Nc1cccc(-c2ccc3nnc(-c4cccnc4)n3n2)c1 [Compound 51] |
| < 10 | O=C(Cc1ccc(Cl)cc1)Nc1cccc(-c2ccc3nnc(-c4cccnc4)n3n2)c1 [Compound 52] |
| < 10 | O=S(=O)(Cc1ccc(F)cc1F)Nc1cccc(-c2ccc3nnc(-c4cccnc4)n3n2)c1 [Compound 56] |
| < 10 | O=S(=O)(Cc1ccc2ccccc2c1)Nc1cccc(-c2ccc3nnc(-c4cccnc4)n3n2)c1 [Compound 57] |
| < 10 | CCc1ccc(CS(=O)(=O)Nc2cccc(-c3ccc4nnc(-c5cccnc5)n4n3)c2)s1 [Compound 59] |
| < 10 | Cc1ccc(CS(=O)(=O)Nc2cccc(-c3ccc4nnc(-c5cccnc5)n4n3)c2)s1 [Compound 60] |
| < 10 | O=S(=O)(Cc1ccccc1F)Nc1cccc(-c2ccc3nnc(-c4cccnc4)n3n2)c1 [Compound 62] |
| < 10 | O=S(=O)(Cc1cccc(F)c1)Nc1cccc(-c2ccc3nnc(-c4cccnc4)n3n2)c1 [Compound 63] |
| < 10 | Cn1cc(CC(=O)Nc2cccc(-c3ccc4nnc(-c5cccnc5)n4n3)c2)c2ccccc21 [Compound 74] |
| < 10 | COc1cccc(C(=O)Nc2cccc(-c3ccc4nnc(-c5ccc(C)o5)n4n3)c2)c1 [Compound 79] |
| < 10 | Cc1ccc(-c2nnc3ccc(-c4cccc(NC(=O)c5ccc(F)cc5)c4)nn23)o1 [Compound 80, 4-fluoro-N-(3-(3-(5-methylfuran-2-yl)-[1,2,4]triazolo[4,3-b]pyridazin-6-yl)phenyl)benzamide] |
| < 10 | Cc1ccc(-c2nnc3ccc(-c4cccc(NC(=O)c5ccc(F)c(Cl)c5)c4)nn23)o1 [Compound 81, 3-chloro-4-fluoro-N-(3-(3-(5-methylfuran-2-yl)-[1,2,4]triazolo[4,3-b]pyridazin-6-yl)phenyl)benzamide] |
| < 10 | Cc1ccc(-c2nnc3ccc(-c4cccc(NC(=O)c5cccc(Cl)c5)c4)nn23)o1 [Compound 82, 3-chloro-N-(3-(3-(5-methylfuran-2-yl)-[1,2,4]triazolo[4,3-b]pyridazin-6-yl)phenyl)benzamide] |
| < 10 | Cc1ccc(-c2nnc3ccc(-c4cccc(NC(=O)c5cccc(Br)c5)c4)nn23)o1 [Compound 83] |
| < 10 | Cc1ccc(-c2nnc3ccc(-c4cccc(NC(=O)c5cccc(F)c5)c4)nn23)o1 [Compound 84] |
| < 10 | Cc1ccc(-c2nnc3ccc(-c4cccc(NC(=O)c5ccc(F)c(F)c5)c4)nn23)o1 [Compound 85] |
| < 10 | CSc1cc(C(=O)Nc2cccc(-c3ccc4nnc(-c5ccc(C)o5)n4n3)c2)ccc1F [Compound 86] |
| < 10 | CCSc1cccc(C(=O)Nc2cccc(-c3ccc4nnc(-c5ccc(C)o5)n4n3)c2)c1 [Compound 87] |
| < 10 | Cc1ccc(-c2nnc3ccc(-c4cccc(NC(=O)c5cccc(SC(C)C)c5)c4)nn23)o1 [Compound 88, 3-(isopropylthio)-N-(3-(3-(5-methylfuran-2-yl)-[1,2,4]triazolo[4,3-b]pyridazin-6-yl)phenyl)benzamide] |
| < 10 | Cc1cccc(C(=O)Nc2cccc(-c3ccc4nnc(-c5ccc(C)o5)n4n3)c2)c1 [Compound 89] |
| < 10 | CCc1cccc(C(=O)Nc2cccc(-c3ccc4nnc(-c5ccc(C)o5)n4n3)c2)c1 [Compound 90, 3-ethyl-N-(3-(3-(5-methylfuran-2-yl)-[1,2,4]triazolo[4,3-b]pyridazin-6-yl)phenyl)benzamide] |
| < 10 | Cc1ccc(-c2nnc3ccc(-c4cccc(NC(=O)c5ccc(F)c(SC(C)C)c5)c4)nn23)o1 [Compound 91] |
| < 10 | Cc1ccc(-c2nnc3ccc(-c4cccc(NC(=O)c5ccc(F)c(C)c5)c4)nn23)o1 [Compound 92] |
| < 10 | CCc1cc(C(=O)Nc2cccc(-c3ccc4nnc(-c5ccc(C)o5)n4n3)c2)ccc1F [Compound 93, 3-ethyl-4-fluoro-N-(3-(3-(5-methylfuran-2-yl)-[1,2,4]triazolo[4,3-b]pyridazin-6-yl)phenyl)benzamide] |
